Laboratory results: patent publication US7994185B2, “Benzene sulfonamide thiazole and oxazole compounds” (Glaxo Smith Kline LLC, priority 2008, dated 2011)

These molecules were tested against T1, BRAFV600E full-length (amino acids 2-766) (Homo sapiens, UniProt P15056, V600E) (assay: B-Raf Accelerated MEK ATPase assay (BRAMA)). Conditions: B-Raf Activity, Table 1a; highest pIC50 for the one or more runs, categorized.
T1 construct: His6-tagged BRAFV600E full-length (amino acids 2-766); His6; made in house; host or cells: baculovirus expression system (insect cells)
T1 sequence (P15056 2-766 V600E): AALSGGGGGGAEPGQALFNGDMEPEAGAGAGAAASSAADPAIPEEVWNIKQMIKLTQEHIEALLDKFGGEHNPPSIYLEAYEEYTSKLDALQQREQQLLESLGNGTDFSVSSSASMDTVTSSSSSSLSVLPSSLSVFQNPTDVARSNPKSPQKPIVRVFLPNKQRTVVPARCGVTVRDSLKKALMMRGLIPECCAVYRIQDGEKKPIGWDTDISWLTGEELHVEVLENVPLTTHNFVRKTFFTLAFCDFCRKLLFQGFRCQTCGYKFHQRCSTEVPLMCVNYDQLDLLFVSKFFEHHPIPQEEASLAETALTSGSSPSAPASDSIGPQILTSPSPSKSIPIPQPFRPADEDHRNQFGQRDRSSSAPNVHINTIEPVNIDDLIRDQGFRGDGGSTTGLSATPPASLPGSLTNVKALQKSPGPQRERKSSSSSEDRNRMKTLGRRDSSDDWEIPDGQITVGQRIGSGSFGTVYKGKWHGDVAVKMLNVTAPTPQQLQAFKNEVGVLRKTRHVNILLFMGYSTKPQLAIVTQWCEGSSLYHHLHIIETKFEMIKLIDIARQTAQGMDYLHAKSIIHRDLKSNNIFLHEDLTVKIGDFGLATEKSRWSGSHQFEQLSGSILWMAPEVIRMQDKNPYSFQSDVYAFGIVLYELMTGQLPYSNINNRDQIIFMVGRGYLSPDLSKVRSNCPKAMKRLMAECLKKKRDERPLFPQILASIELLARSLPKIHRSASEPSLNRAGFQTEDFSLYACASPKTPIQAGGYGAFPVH
Type: biochemical
Procedure: Compounds of the present invention were tested for B-Raf protein serine kinase inhibitory activity in a B-Raf Accelerated MEK ATPase assay (BRAMA). […] The BRAMA assay is a high sensitivity assay which measures an intrinsic MEK-mediated ATP hydrolysis uncoupled from downstream ERK phosphorylation by coupling the formation of ADP to NADH oxidation through the enzymes pyruvate kinase and lactate dehydrogenase. When ADP production is initiated by addition of catalytic amounts of an activated Raf enzyme and non-phosphorylated MEK, one observes robust ADP production concomitant with Raf-mediated phosphorylation of MEK. The method is disclosed in: C. Rominger, M. Schaber, E. May. Assay for B-Raf Activity Based on Intrinsic MEK ATPase Activity.
In the case of `CC(C)c1nc(-c2cccc(NS(=O)(=O)c3cccc(F)c3)c2)c(-c2ccnc(NCCCN(C)C)n2)s1` [Example 88, N-{3-[5-(2-{[3-(Dimethylamino)propyl]amino}-4-pyrimidinyl)-2-(1-methylethyl)-1,3-thiazol-4-yl]phenyl}-3-fluorobenzenesulfonamide], the IC50 is reported as less than 100 nM. Molecule `CC(C)c1nc(-c2cccc(NS(=O)(=O)c3c(F)cccc3F)c2)c(-c2ccnc(N)n2)s1` [Example 90, N-{3-[5-(2-Amino-4-pyrimidinyl)-2-(1-methylethyl)-1,3-thiazol-4-yl]phenyl}-2,6-difluorobenzenesulfonamide] has an IC50 of less than 100 nM.

Same assay, conditions: B-Raf pIC50, Table 1b; later runs, average pIC50 for the one or more runs, categorized
`CC(C)(C)c1nc(-c2cccc(NS(=O)(=O)c3ccco3)c2F)c(-c2ccnc(N)n2)o1` [Example 298, N-{3-[5-(2-amino-4-pyrimidinyl)-2-(1,1-dimethylethyl)-1,3-oxazol-4-yl]-2-fluorophenyl}-2-furansulfonamide] was tested, and the IC50 was no more than 3.16 nM. With `Nc1nccc(-c2sc(C3CCNCC3)nc2-c2cccc(NS(=O)(=O)c3c(F)cccc3F)c2F)n1` [Example 322, N-{3-[5-(2-amino-4-pyrimidinyl)-2-(4-piperidinyl)-1,3-thiazol-4-yl]-2-fluorophenyl}-2,6-difluorobenzenesulfonamide] the IC50 was no more than 3.16 nM. `O=S(=O)(Nc1cccc(-c2nc(C3CCOCC3)sc2-c2ccnc(NCCN3CCCC3)n2)c1F)c1ccoc1` [Example 306, N-{2-fluoro-3-[5-(2-{[2-(1-pyrrolidinyl)ethyl]amino}-4-pyrimidinyl)-2-(tetrahydro-2H-pyran-4-yl)-1,3-thiazol-4-yl]phenyl}-3-furansulfonamide] gave an IC50 of no more than 3.16 nM. In the case of `O=S(=O)(Nc1cccc(-c2nc(C3CCOCC3)sc2-c2ccnc(NCCN3CCOCC3)n2)c1F)c1ccoc1` [Example 307, N-{2-fluoro-3-[5-(2-{[2-(4-morpholinyl)ethyl]amino}-4-pyrimidinyl)-2-(tetrahydro-2H-pyran-4-yl)-1,3-thiazol-4-yl]phenyl}-3-furansulfonamide], the IC50 is reported as no more than 3.16 nM. `C[C@H](O)CNc1nccc(-c2sc(C(C)(C)C)nc2-c2cccc(NS(=O)(=O)c3c(F)cccc3F)c2F)n1` [Example 291, N-{3-[2-(1,1-dimethylethyl)-5-(2-{[(2S)-2-hydroxypropyl]amino}-4-pyrimidinyl)-1,3-thiazol-4-yl]-2-fluorophenyl}-2,6-difluorobenzenesulfonamide] gave an IC50 of no more than 3.16 nM. For `CCN(CC)CCNc1nccc(-c2sc(C3CCOCC3)nc2-c2cccc(NS(=O)(=O)c3ccoc3)c2F)n1` [Example 301, N-{3-[5-(2-{[2-(diethylamino)ethyl]amino}-4-pyrimidinyl)-2-(tetrahydro-2H-pyran-4-yl)-1,3-thiazol-4-yl]-2-fluorophenyl}-3-furansulfonamide], the IC50 was no more than 3.16 nM. In the case of `CS(=O)(=O)NCc1nccc(-c2sc(N3CCOCC3)nc2-c2cccc(NS(=O)(=O)c3cc(F)ccc3F)c2F)n1` [Example 273, 2,5-difluoro-N-{2-fluoro-3-[5-(2-{[(methylsulfonyl)amino]methyl}-4-pyrimidinyl)-2-(4-morpholinyl)-1,3-thiazol-4-yl]phenyl}benzenesulfonamide], the IC50 is reported as no more than 3.16 nM. `CC(C)(C)c1nc(-c2cccc(NS(=O)(=O)c3ccoc3)c2Cl)c(-c2ccncn2)s1` [Example 268, N-{2-chloro-3-[2-(1,1-dimethylethyl)-5-(4-pyrimidinyl)-1,3-thiazol-4-yl]phenyl}-3-furansulfonamide] was tested, and the IC50 was no more than 3.16 nM. For `CC(C)c1nc(-c2cccc(NS(=O)(=O)c3c(F)cccc3F)c2)c(-c2ccnc(N)n2)s1` [Example 90, N-{3-[5-(2-Amino-4-pyrimidinyl)-2-(1-methylethyl)-1,3-thiazol-4-yl]phenyl}-2,6-difluorobenzenesulfonamide], the IC50 was 31.6 to 1000 nM.

Same assay, conditions: Table 1a; highest pIC50 for the one or more runs, categorized; read-out: B-Raf Activity
In the case of `CC(C)c1nc(-c2ccc(F)c(NS(=O)(=O)c3c(F)cccc3F)c2)c(-c2ccnc(NCCN3CCOCC3)n2)s1` [Example 171], the IC50 is reported as 100 to 1000 nM.

Same assay, conditions: Table 1b; later runs, average pIC50 for the one or more runs, categorized; read-out: B-Raf pIC50 (converted)
Work on `CC(=O)NCc1nccc(-c2sc(N3CCOCC3)nc2-c2cccc(NS(=O)(=O)c3cc(F)ccc3F)c2F)n1` [Example 276, N-({4-[4-(3-{[(2,5-difluorophenyl)sulfonyl]amino}-2-fluorophenyl)-2-(4-morpholinyl)-1,3-thiazol-5-yl]-2-pyrimidinyl}methyl)acetamide] yielded an IC50 of 3.16 to 31.6 nM. In the case of `CC(C)c1nc(-c2cccc(NS(=O)(=O)c3cccc(F)c3)c2)c(-c2ccnc(NCCCN(C)C)n2)s1` [Example 88, N-{3-[5-(2-{[3-(Dimethylamino)propyl]amino}-4-pyrimidinyl)-2-(1-methylethyl)-1,3-thiazol-4-yl]phenyl}-3-fluorobenzenesulfonamide], the IC50 is reported as 3.16 to 31.6 nM.
